test system: Radical scavenging activity; assay: Antioxidant activity assessed as DPPH free radical scavenging activity; format: functional

EC50 [µM]	Structure (SMILES)
4.2	Oc1cccc(O)c1O [PYROGALLOL]
> 100	COc1c(O)cc(C(=O)O)cc1O
> 100	COc1c(O)cccc1O[C@@H]1O[C@H](C(=O)O)[C@@H](O)[C@H](O)[C@H]1O
> 100	COc1c(O)cc(C(=O)O)cc1OS(=O)(=O)O
16.6	O=C1O[C@H]([C@@H](O)CO)C(O)=C1O [ASCORBIC ACID]
19.9	Cc1c(C)c2c(c(C)c1O)CCC(C)(CCCC(C)CCCC(C)CCCC(C)C)O2 (racemic) [alpha-TOCHOPHEROL]
99.6	COc1c(O)cccc1O [2-METHOXYRESORCINOL]

Structure (SMILES)	EC50 [µM]
O=C(O)c1cc(O)c(O)c(O)c1 [GALLIC ACID]	4.2
